Laboratory results from US11584741B2, “Crystalline forms of 4-(5-(4,7-dimethylbenzofuran-2-yl)-1,2,4-oxadiazol-3-yl)benzoic acid and processes for their preparation” (King's College London, priority 2016, dated 2023).
Values after ≈ are worked out from the molar mass of the structure shown. “Also recorded” adds a separate entry of the source. One block for each molecule: values may come before it.

How the values were obtained:
[1] = Stability studies on storage (appearance, drug content, water content, drug-related impurities); format: physicochemical
Protocol: Stability studies were performed as follows. Samples were packaged in double low density polyethylene bags, sealed with plastic ties, and placed in high-density polyethylene (HDPE) drums.
The samples were tested periodically for visual appearance, drug content (by HPLC), water content (by Karl Fischer titration), and drug-related impurities (by HPLC).
Drug content, corrected to a water and solvent free basis, is calculated from the following equation: Content (%)=100−(water+solvents+residue on ignition+related impurities).
Drug-related impurities were determined using a reverse-phase gradient HPLC method with UV detection at 254 nm, using a 150 mm×4.6 mm, 3 μm Waters Atlantis T3 column, with the following parameters: […]

[2] = Dynamic vapour sorption (DVS) hygroscopicity; format: physicochemical; details: from DVS, 0% to 95% RH
Protocol: The DVS studies were performed using a Surface Measurement Systems Ltd. DVS-1 No Video (Equipment #2126).
The sample was weighed in a glass pan, typically 20-30 mg, and equilibrated at 0% RH. After the material had dried, the relative humidity (RH) was increased with 10% per step for 1 hour per increment, ending at 95% RH.
The software used for data collection was DVSWn v3.01 No Video. Data analysis was performed using DVS Standard Analysis Suite v6.3.0 (Standard).
To determine the hygroscopicity of Form 1, a DVS plot was measured at 25° C. for a double sorption-desorption cycle. The total mass uptake was 8.7% w/w between 0% and 95% RH, which characterised Form 1 as a hygroscopic form. The uptake was reversible and reproducible.
To determine the hygroscopicity of Form 4, a DVS plot was measured at 25° C. for a double sorption-desorption cycle. The total mass uptake was 0.1% between 0% and 95% RH, which characterises Form 4 as a non-hygroscopic form.

cerebellar neurons = assay: Neurite outgrowth assay, cerebellar neurons in the presence of myelin / MAG; format: cell-based, rat; details: for Effect on RARβ agonist (CD2019) mediated neurite outgrowth: cerebellar neurons cultured with CD2019 plus inhibitor; for Effect on RARβ agonist (CD2019) mediated neurite outgrowth in the presence of MAG: cerebellar neurons
Protocol: Cerebellar neurons isolated from post-natal day 3 rat pups were cultured over monolayers of parental 3T3 cells in control media, or media supplemented with a recombinant MAG-Fc chimera (R&D Systems) used at a final concentration of 20 μg/mL MAG-Fc. The monolayers were established for 24 hours prior to addition of the neurons and the co-cultures were maintained for approximately 21 hours. Following careful fixation with 4% paraformaldehyde, the neurons were immuno-stained with a GAP-43 antibody (from Graham Wilkin, Imperial College), dilution of 1:500, and the mean length of the longest neurite per cell was measured for approximately 120-150 neurons as previously described (see, e.g., Williams et al., 2005). DRG and cortical explants were obtained from adult rats, they were cultured in cellogen as previously described (see, e.g., Corcoran and Maden, 1999). Three explants per treatment were used. Neurite outgrowth was assessed 3 days later by immunohistochemistry with NF200 (Sigma, dilution of 1:200). The average lengths of the neurites were measured using image pro plus software. Media consisted of DMEM-F12 (Invitrogen) containing N2 (Invitrogen) supplemented with glucose (33 mM) and glutamine (2 mM).

RARβ [3] = biological target: T1, RARβ (Homo sapiens, UniProt P10826); assay: Transcriptional transactivation assay, gal4-RAR fusion receptor / luciferase reporter in COS-7 cells; format: cell-based; details: Table 21
T1 construct: expressed in transfected cells; host or cells: COS-7
T1 sequence (P10826 183-417 limits assumed): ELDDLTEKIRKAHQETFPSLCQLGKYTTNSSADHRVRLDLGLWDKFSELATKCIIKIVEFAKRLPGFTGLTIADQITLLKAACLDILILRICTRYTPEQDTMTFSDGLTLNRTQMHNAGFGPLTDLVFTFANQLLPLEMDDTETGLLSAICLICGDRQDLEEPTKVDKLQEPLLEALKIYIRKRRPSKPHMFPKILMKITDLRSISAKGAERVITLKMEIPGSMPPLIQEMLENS
Protocol: (§1) Transcriptional transactivation assays were performed with gal4 fusion receptor constructs, created using each of the RAR ligand binding domains of either mouse or human, co-transfected with the pFR-luc (Stratagene) reporter construct in COS-7 cells.
(§2) Briefly, on day 1, 96 well plates were seeded with 8000 cells per well then left to recover overnight. On day 2, the cells were co-transfected with 100 ng of reporter plasmid and 10 ng of the appropriate receptor plasmid per well using lipofectamine (Invitrogen). On day 3, the lipofectamine containing media was replaced by a DMEM without phenol red, followed by the addition of test compound dissolved in 1 μL of DMSO to each well's 100 μL total volume. Finally, on day 4, the cells were lysed and their luciferase substrate was provided by the BrightGlo™ reagent (Promega), the plates were then read on the MicroBeta TrLux™ (Perkin Elmer).
(§3) Data for test compounds are quoted as EC50 values. Where replicate data has been generated, the data are quoted as the mean EC50 from the separate experiments.

RARβ [4] = biological target: T2, RARβ (Mus musculus, UniProt P22605); assay: as above; format: cell-based
T2 construct: expressed in transfected cells; host or cells: COS-7
T2 sequence (P22605 210-444 limits assumed): T1 sequence (P10826 183-417 limits assumed)
Protocol: as §1, §2, §3

[5] = Solubility studies, shake-flask method in 15 solvents; format: physicochemical; details: for solubility at 24 h: 20° C.
Protocol: The solubility of BHBA-001 (characterised by XRPD as Form 1) was determined in 15 solvents to study the initial polymorphic behaviour. A shake-flask method was applied in which solid was added stepwise (e.g., 10 mg at a time) to a known amount of solvent (e.g., 3 mL). The solubility was confirmed visually. After the addition, the suspension/solution was held for 24 hours at 20° C. in order to check for slow dissolution or recrystallization. If the solid was not completely dissolved, the suspension was heated to 50° C. to encourage dissolution. The solvent was then removed by evaporation, in some cases, with the help of anti-solvent. The resulting solid was analysed using XRPD.

[6] = tested on: rats with severed and re-implanted sensory roots at the level of the left forelimb; assay: Sensory roots of four DRG severed and re-implanted into the spinal cord, sticky tape tests; format: in vivo; details: rat, after 5 weeks, 1 mg/kg three times a week
Protocol: In another example of nerve injury, the four sensory roots from each of four DRG at the level of the left forelimb were severed and re-implanted into the spinal cord.
The results are illustrated in Borthwick et al., 2016. […] Rats were treated with 1 mg/kg of the test compound or vehicle two days after lesion, and then three times a week for the period of the experiment. Error bars show SEM. ***P<0.001, students t test, n=3-4 rats for each treatment group. At weeks 3, 4, and 5, there was significant difference between the rats treated with RARβ agonist as compared to rats treated with other retinoid agonists and vehicle.

[7] = after 24 months at 25° C./60% RH and 6 months at 40° C./75% RH

SMILES: CCCCCCOC(=O)[C@]1(O)C[C@@H]2O[C@@]1(C)n1c3ccccc3c3c4c(c5c6ccccc6n2c5c31)C(=O)NC4 [KT5720]
- Effect on RARβ agonist (CD2019) mediated neurite outgrowth (cerebellar neurons): little or no effect
- Effect on RARβ agonist (CD2019) mediated neurite outgrowth in the presence of MAG (cerebellar neurons): does not affect

SMILES: O=c1cc(N2CCOCC2)oc2c(-c3ccccc3)cccc12 [LY295002]
- Effect on RARβ agonist (CD2019) mediated neurite outgrowth (cerebellar neurons): severely impeded
- Effect on RARβ agonist (CD2019) mediated neurite outgrowth in the presence of MAG (cerebellar neurons): prevents

The next lines start with results.

- Storage time shown to be stable ([1]; 25° C./60% RH): at least 24 months
- Drug Content ([1]; 25° C./60% RH, 3 months): 98.7 % w/w
- Drug-Related Impurities ([1]; 25° C./60% RH, 3 months): 0.06 % area
- Visual Appearance ([1]; 25° C./60% RH, 3 months): As initial
- Water content ([1]; 25° C./60% RH, 3 months): <0.1 % w/w
- Drug Content ([1]; 25° C./60% RH, 6 months): 100.2 % w/w
- Drug-Related Impurities ([1]; 25° C./60% RH, 6 months): 0.05 % area
- Visual Appearance ([1]; 25° C./60% RH, 6 months): As initial
- Water content ([1]; 25° C./60% RH, 6 months): <0.1 % w/w
- Drug Content ([1]; 25° C./60% RH, 9 months): 99.2 % w/w
- Drug-Related Impurities ([1]; 25° C./60% RH, 9 months): 0.03 % area
- Visual Appearance ([1]; 25° C./60% RH, 9 months): As initial
- Water content ([1]; 25° C./60% RH, 9 months): <0.1 % w/w
- Drug Content ([1]; 25° C./60% RH, 12 months): 100.4 % w/w
- Drug-Related Impurities ([1]; 25° C./60% RH, 12 months): 0.03 % area
- Visual Appearance ([1]; 25° C./60% RH, 12 months): Off-white
- Water content ([1]; 25° C./60% RH, 12 months): <0.1 % w/w
- Drug Content ([1]; 25° C./60% RH, 18 months): 101.1 % w/w
- Drug-Related Impurities ([1]; 25° C./60% RH, 18 months): 0.07 % area
- Visual Appearance ([1]; 25° C./60% RH, 18 months): Off-white
- Water content ([1]; 25° C./60% RH, 18 months): <0.1 % w/w
- Drug Content ([1]; 25° C./60% RH, 24 months): 101.5 % w/w
- Drug-Related Impurities ([1]; 25° C./60% RH, 24 months): <0.03 % area
- Visual Appearance ([1]; 25° C./60% RH, 24 months): As initial
- Water content ([1]; 25° C./60% RH, 24 months): <0.1 % w/w
- Storage time shown to be stable ([1]; 40° C./75% RH): ≥ 6 months
- Drug Content ([1]; 40° C./75% RH, 3 months): 98.3 % w/w
- Drug-Related Impurities ([1]; 40° C./75% RH, 3 months): 0.10 % area
- Visual Appearance ([1]; 40° C./75% RH, 3 months): As initial
- Water content ([1]; 40° C./75% RH, 3 months): <0.1 % w/w
- Drug Content ([1]; 40° C./75% RH, 6 months): 99.8 % w/w
- Drug-Related Impurities ([1]; 40° C./75% RH, 6 months): 0.05 % area
- Visual Appearance ([1]; 40° C./75% RH, 6 months): As initial
- Water content ([1]; 40° C./75% RH, 6 months): <0.1 % w/w
- Drug Content ([1]; Initial, 0 months): 100.1 % w/w
- Drug-Related Impurities ([1]; Initial, 0 months): 0.03 % area
- Visual Appearance ([1]; Initial, 0 months): White
- Water content ([1]; Initial, 0 months): <0.1 % w/w
- Change of appearance on storage [1, 7]: essentially unchanged
- Change of drug content on storage [1, 7]: essentially unchanged
- Change of drug-related impurity levels on storage [1, 7]: essentially unchanged
- Change of water content on storage [1, 7]: essentially unchanged
- Stability at ambient conditions (in words) ([1]; ambient conditions): stable for many months
SMILES: Cc1ccc(C)c2oc(-c3nc(-c4ccc(C(=O)O)cc4)no3)cc12 [Form 4, 4-(5-(4,7-dimethylbenzofuran-2-yl)-1,2,4-oxadiazol-3-yl)benzoic acid]
- Hygroscopicity characterisation [2]: low hygroscopicity; also recorded: non-hygroscopic

- Hygroscopicity characterisation [2]: hygroscopic
SMILES: Cc1ccc(C)c2oc(-c3nc(-c4ccc(C(=O)O)cc4)no3)cc12 [Form 1, 4-(5-(4,7-dimethylbenzofuran-2-yl)-1,2,4-oxadiazol-3-yl)benzoic acid]

- Selectivity over RARα (RARβ [3]): 23-fold
- Selectivity over RARγ (RARβ [3]): 5-fold
- Selectivity over RARγ (RARβ [4]; Mouse, Table 21): 6-fold
- EC50 (RARβ [4]; Table 20, mean of three or more determinations, species not given, value equals mouse value of Table 21): < 2 nM
- Solubility (in words) ([5]; in most solvents of the 15 tested): only poorly soluble
- solubility at 24 h ([5]; organic solvent or mixture, thermodynamic from solid, 1-propanol, starting solid Form 1): < 3000 µg/mL
- solubility at 24 h ([5]; organic solvent or mixture, thermodynamic from solid, 2-methyltetrahydrofuran, starting solid Form 1): 5000 to 10000 µg/mL (≈ 15 to 29.9 mM)
- solubility at 24 h ([5]; organic solvent or mixture, thermodynamic from solid, 2-propanol, starting solid Form 1): < 3000 µg/mL
- solubility at 24 h ([5]; organic solvent or mixture, thermodynamic from solid, acetic acid, starting solid Form 1): < 4000 µg/mL
- solubility ([5]; organic solvent or mixture, thermodynamic from solid, acetone, at 50° C. (footnote), starting solid Form 1): < 3000 µg/mL
- solubility at 24 h ([5]; organic solvent or mixture, thermodynamic from solid, acetonitrile, starting solid Form 1): < 4000 µg/mL
- solubility at 24 h ([5]; organic solvent or mixture, thermodynamic from solid, dichloromethane, starting solid Form 1): < 3000 µg/mL
- solubility at 24 h ([5]; organic solvent or mixture, thermodynamic from solid, ethanol, starting solid Form 1): < 4000 µg/mL
- solubility at 24 h ([5]; organic solvent or mixture, thermodynamic from solid, ethyl acetate, starting solid Form 1): < 4000 µg/mL
- solubility at 24 h ([5]; organic solvent or mixture, thermodynamic from solid, isopropyl acetate, starting solid Form 1): 4000 µg/mL (≈ 12 mM)
- solubility at 24 h ([5]; organic solvent or mixture, thermodynamic from solid, methyl tert-butyl ether, starting solid Form 1): < 3000 µg/mL
- solubility at 24 h ([5]; organic solvent or mixture, thermodynamic from solid, n-heptane, starting solid Form 1): < 3000 µg/mL
- solubility at 24 h ([5]; organic solvent or mixture, thermodynamic from solid, tetrahydrofuran (THF), starting solid Form 1): 9000 to 30000 µg/mL (≈ 26.9 to 89.7 mM)
- solubility at 24 h ([5]; organic solvent or mixture, thermodynamic from solid, toluene, starting solid Form 1): < 3000 µg/mL
- solubility at 24 h ([5]; thermodynamic from solid, water, starting solid Form 1): < 3000 µg/mL
SMILES: Cc1ccc(C)c2oc(-c3nc(-c4ccc(C(=O)O)cc4)no3)cc12 [BHBA-001, 4-(5-(4,7-dimethylbenzofuran-2-yl)-1,2,4-oxadiazol-3-yl)benzoic acid]
- Behavioural test (sticky tape) [6]: performed as well as non-lesioned animals
